Measured values published in ChEMBL document CHEMBL3407349, “The discovery of Polo-like kinase 4 inhibitors: identification of (1R,2S).2-(3-((E).4-(((cis).2,6-dimethylmorpholino)methyl)styryl). 1H.indazol-6-yl)-5'-methoxyspiro[cyclopropane-1,3'-indolin]-2'-one (CFI-400945) as a potent, orally active antitumor agent” (J Med Chem, 2015).

What was measured:
[1] = test system: MDA-MB-468; test: Growth inhibition of human MDA-MB-468 cells after 5 days by SRB assay; type: functional; conditions: Homo sapiens, MDA-MB-468, 120 h
[2] = test system: MCF7; test: Growth inhibition of human MCF7 cells after 5 days by SRB assay; type: functional; conditions: Homo sapiens, MCF7, 120 h
[3] = test system: HCC1954; test: Growth inhibition of human HCC1954 cells after 5 days by SRB assay; type: functional; conditions: Homo sapiens, HCC1954, 120 h
[4] = test system: MDA-MB-231; test: Growth inhibition of human MDA-MB-231 cells after 5 days by SRB assay; type: functional; conditions: Homo sapiens, MDA-MB-231, 120 h
[5] = Growth inhibition of human HMEC cells after 5 days by SRB assay; type: cell-based; conditions: HMEC cells
[6] = target: T1, Cytochrome P450 1A2 (Homo sapiens, UniProt P05177); test: Inhibition of CYP1A2 (unknown origin) by fluorescence assay; type: ADME
T1 sequence (P05177 whole entry): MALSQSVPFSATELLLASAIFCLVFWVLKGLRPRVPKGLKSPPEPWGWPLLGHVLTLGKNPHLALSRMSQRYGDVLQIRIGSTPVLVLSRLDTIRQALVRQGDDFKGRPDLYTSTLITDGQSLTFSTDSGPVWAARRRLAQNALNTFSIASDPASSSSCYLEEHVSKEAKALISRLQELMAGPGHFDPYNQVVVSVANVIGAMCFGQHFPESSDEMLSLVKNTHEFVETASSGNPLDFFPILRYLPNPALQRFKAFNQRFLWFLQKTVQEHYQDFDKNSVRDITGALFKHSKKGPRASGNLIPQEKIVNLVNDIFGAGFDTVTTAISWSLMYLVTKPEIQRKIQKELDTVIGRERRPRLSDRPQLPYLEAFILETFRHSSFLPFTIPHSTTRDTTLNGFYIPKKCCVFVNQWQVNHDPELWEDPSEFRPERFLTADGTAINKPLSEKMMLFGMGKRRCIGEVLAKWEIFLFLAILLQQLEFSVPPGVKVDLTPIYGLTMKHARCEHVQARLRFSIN

[7] = target: Cytochrome P450 2D6 (Homo sapiens, UniProt P10635); test: Inhibition of CYP2D6 (unknown origin) by fluorescence assay; type: ADME
[8] = Cmax in athymic CD1 nude mouse at 25 mg/kg, po by LC/MS/MS analysis; type: ADME, organism-based; design: dose 25 mg/kg, route oral; conditions: in vivo
[9] = AUC in athymic CD1 nude mouse at 25 mg/kg, po by LC/MS/MS analysis; type: ADME, organism-based; design: dose 25 mg/kg, route oral; conditions: plasma
[10] = Half life in Sprague-Dawley rat at 1 mg/kg, iv; type: ADME, organism-based; design: dose 1 mg/kg, route intravenous; conditions: in vivo
[11] = AUC(infinity) in Sprague-Dawley rat at 1 mg/kg, iv; type: ADME, organism-based; design: time infinity, dose 1 mg/kg, route intravenous; conditions: plasma
[12] = AUC(infinity) in Sprague-Dawley rat at 5 mg/kg, po; type: ADME, organism-based; design: dose 5 mg/kg, route oral, time infinity; conditions: plasma
[13] = Oral bioavailability in Sprague-Dawley rat at 5 mg/kg; type: ADME, organism-based; conditions: in vivo
[14] = Half life in beagle dog at 1 mg/kg, iv; type: ADME, organism-based, Canis lupus familiaris; design: dose 1 mg/kg, route intravenous; conditions: in vivo
[15] = AUC(infinity) in beagle dog at 1 mg/kg, iv; type: ADME, organism-based, Canis lupus familiaris; design: time infinity, dose 1 mg/kg, route intravenous; conditions: plasma
[16] = AUC(infinity) in beagle dog at 5 mg/kg, po; type: ADME, organism-based, Canis lupus familiaris; design: time infinity, dose 5 mg/kg, route oral; conditions: plasma
[17] = Oral bioavailability in beagle dog at 5 mg/kg; type: ADME, organism-based, Canis lupus familiaris; conditions: in vivo
[18] = Growth inhibition of human SKBR3 cells after 5 days by SRB assay; type: functional; conditions: SK-BR-3, 120 h
[19] = Growth inhibition of human CAL51 cells after 5 days by SRB assay; type: functional; conditions: CAL-51, 120 h
[20] = Growth inhibition of human BT20 cells after 5 days by SRB assay; type: functional; conditions: BT-20, 120 h
[21] = test system: A549; test: Growth inhibition of human A549 cells after 5 days by SRB assay; type: functional; conditions: A549, 120 h
[22] = Growth inhibition of human OVCAR3 cells after 5 days by SRB assay; type: functional; conditions: OVCAR-3, 120 h
[23] = test system: SW-620; test: Growth inhibition of human SW620 cells after 5 days by SRB assay; type: functional; conditions: SW-620, 120 h
[24] = Growth inhibition of human COLO205 cells after 5 days by SRB assay; type: functional; conditions: COLO 205, 120 h
[25] = Growth inhibition of human HCT116 cells after 5 days by SRB assay; type: functional; conditions: HCT-116, 120 h
[26] = test system: Mus musculus; test: Toxicity in CB-17 SCID mouse xenografted with human MDA-MB-468 cells assessed as mortality at 3 to 9.4 mg/kg, po qd administered for 21 days; type: organism-based; design: dose 3-9.4 mg/kg, route oral; conditions: in vivo, 504 h
[27] = test system: Mus musculus; test: Toxicity in CB-17 SCID mouse xenografted with human MDA-MB-468 cells assessed as loss in body weight at 3 to 9.4 mg/kg, po qd administered for 21 days relative to control; type: organism-based; design: dose 3-9.4 mg/kg, route oral; conditions: in vivo, 504 h
[28] = test system: MDA-MB-468; test: Antitumor activity against human MDA-MB-468 cells xenografted in CB-17 SCID mouse assessed as tumor growth inhibition at 3 mg/kg, po qd administered for 21 days; type: functional; conditions: MDA-MB-468, 504 h, read-out: TGI
[29] = test system: MDA-MB-468; test: Antitumor activity against human MDA-MB-468 cells xenografted in CB-17 SCID mouse assessed as tumor growth inhibition at 9.4 mg/kg, po qd administered for 21 days; type: functional; conditions: MDA-MB-468, 504 h, read-out: TGI
[30] = Antitumor activity against human SW620 cells xenografted in CB-17 SCID mouse assessed as tumor growth inhibition at 3 mg/kg, po qd administered for 21 days; type: functional; conditions: SW-620, 504 h, read-out: TGI
[31] = Antitumor activity against human SW620 cells xenografted in CB-17 SCID mouse assessed as tumor growth inhibition at 9.4 mg/kg, po qd administered for 21 days; type: functional; conditions: SW-620, 504 h, read-out: TGI
[32] = test system: A549; test: Antitumor activity against human A549 cells xenografted in CB-17 SCID mouse assessed as tumor growth inhibition at 3 mg/kg, po qd administered for 21 days; type: functional; conditions: A549, 504 h, read-out: TGI
[33] = test system: A549; test: Antitumor activity against human A549 cells xenografted in CB-17 SCID mouse assessed as tumor growth inhibition at 9.4 mg/kg, po qd administered for 21 days; type: functional; conditions: A549, 504 h, read-out: TGI
[34] = Toxicity in po dosed athymic CD-1 nude mouse xenografted with human HCT116 cells administered qd 1-on/3-off schedule up to day 21; type: organism-based, HCT-116; conditions: CD-1 athymic nude, in vivo
[35] = Antitumor activity against human HCT116 cells xenografted in athymic CD-1 nude mouse assessed as tumor growth inhibition at MTD, po qd administered 1-on/3-off schedule up to day 21; type: functional, HCT-116
[36] = target: Cytochrome P450 2C9 (Homo sapiens, UniProt P11712); test: Inhibition of CYP2C9 (unknown origin) by fluorescence assay
[37] = target: Cytochrome P450 2C19 (Homo sapiens, UniProt P33261); test: Inhibition of CYP2C19 (unknown origin) by fluorescence assay
[38] = Half life in mouse liver microsomes; conditions: liver microsomes
[39] = Half life in rat liver microsomes; conditions: liver microsomes
[40] = Half life in dog liver microsomes; conditions: liver microsomes
[41] = Half life in human liver microsomes; conditions: liver microsomes
[42] = test system: Rattus norvegicus; test: Clearance in Sprague-Dawley rat at 1 mg/kg, iv; type: ADME, organism-based; design: dose 1 mg/kg, route intravenous; conditions: in vivo
[43] = test system: Canis familiaris; test: Clearance in beagle dog at 1 mg/kg, iv; type: ADME, organism-based, Canis lupus familiaris; design: dose 1 mg/kg, route intravenous; conditions: in vivo
[44] = target: T2, Angiopoietin-1 receptor (Homo sapiens, UniProt Q02763); test: Inhibition of TIE2 (unknown origin) by FRET analysis
[45] = target: T2, Angiopoietin-1 receptor; test: Inhibition of TIE2 (unknown origin) by cell-based assay
[46] = Antitumor activity against human HCT116 cells xenografted in athymic CD-1 nude mouse assessed as tumor growth inhibition at MTD, po qd administered 1-on/3-off schedule up to day 21 measured on day 35; type: functional, HCT-116

T2 sequence (Q02763 whole entry): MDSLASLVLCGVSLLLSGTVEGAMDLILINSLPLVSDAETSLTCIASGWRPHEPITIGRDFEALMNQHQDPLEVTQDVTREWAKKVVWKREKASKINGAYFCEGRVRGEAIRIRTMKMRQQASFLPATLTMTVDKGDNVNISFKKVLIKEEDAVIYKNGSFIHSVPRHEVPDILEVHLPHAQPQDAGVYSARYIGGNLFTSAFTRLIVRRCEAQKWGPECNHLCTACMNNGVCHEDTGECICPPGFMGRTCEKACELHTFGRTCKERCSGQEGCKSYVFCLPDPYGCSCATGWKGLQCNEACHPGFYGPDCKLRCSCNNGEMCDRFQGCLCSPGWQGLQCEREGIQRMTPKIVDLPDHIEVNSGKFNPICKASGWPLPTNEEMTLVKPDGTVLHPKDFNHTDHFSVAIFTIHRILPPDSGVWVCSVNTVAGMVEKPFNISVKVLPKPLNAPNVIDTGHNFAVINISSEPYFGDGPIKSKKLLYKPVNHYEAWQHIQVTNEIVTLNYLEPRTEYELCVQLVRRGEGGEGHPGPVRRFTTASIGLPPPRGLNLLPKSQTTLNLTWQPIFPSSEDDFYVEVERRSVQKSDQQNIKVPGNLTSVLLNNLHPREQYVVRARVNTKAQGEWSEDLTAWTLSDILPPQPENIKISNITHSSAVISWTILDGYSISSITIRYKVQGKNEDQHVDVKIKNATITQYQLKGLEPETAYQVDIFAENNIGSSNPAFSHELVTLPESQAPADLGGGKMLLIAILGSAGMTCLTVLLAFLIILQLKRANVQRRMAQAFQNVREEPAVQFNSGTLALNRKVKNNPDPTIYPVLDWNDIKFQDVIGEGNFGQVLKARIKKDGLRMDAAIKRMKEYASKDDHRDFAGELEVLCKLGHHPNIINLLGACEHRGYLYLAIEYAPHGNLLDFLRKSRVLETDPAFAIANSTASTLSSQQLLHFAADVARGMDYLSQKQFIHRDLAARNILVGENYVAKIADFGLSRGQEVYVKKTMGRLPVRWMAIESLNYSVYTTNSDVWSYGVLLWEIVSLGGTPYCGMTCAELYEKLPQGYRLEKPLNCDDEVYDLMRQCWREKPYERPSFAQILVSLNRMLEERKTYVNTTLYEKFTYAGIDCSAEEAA
Sequence of Cytochrome P450 2D6 (P10635 whole entry): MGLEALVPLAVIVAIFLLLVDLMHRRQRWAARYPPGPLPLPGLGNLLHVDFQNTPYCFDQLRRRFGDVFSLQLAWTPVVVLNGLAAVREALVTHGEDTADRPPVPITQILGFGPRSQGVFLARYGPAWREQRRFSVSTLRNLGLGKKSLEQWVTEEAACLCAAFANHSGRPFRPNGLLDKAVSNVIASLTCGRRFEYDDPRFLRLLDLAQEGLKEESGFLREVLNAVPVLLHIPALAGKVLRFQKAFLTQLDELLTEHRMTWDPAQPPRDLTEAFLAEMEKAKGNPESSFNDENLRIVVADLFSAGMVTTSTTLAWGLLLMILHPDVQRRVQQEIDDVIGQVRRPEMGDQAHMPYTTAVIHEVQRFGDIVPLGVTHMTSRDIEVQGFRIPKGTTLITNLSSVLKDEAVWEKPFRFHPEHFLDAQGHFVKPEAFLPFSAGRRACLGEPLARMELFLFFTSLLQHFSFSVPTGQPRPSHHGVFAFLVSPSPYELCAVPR
Sequence of Cytochrome P450 2C9 (P11712 whole entry): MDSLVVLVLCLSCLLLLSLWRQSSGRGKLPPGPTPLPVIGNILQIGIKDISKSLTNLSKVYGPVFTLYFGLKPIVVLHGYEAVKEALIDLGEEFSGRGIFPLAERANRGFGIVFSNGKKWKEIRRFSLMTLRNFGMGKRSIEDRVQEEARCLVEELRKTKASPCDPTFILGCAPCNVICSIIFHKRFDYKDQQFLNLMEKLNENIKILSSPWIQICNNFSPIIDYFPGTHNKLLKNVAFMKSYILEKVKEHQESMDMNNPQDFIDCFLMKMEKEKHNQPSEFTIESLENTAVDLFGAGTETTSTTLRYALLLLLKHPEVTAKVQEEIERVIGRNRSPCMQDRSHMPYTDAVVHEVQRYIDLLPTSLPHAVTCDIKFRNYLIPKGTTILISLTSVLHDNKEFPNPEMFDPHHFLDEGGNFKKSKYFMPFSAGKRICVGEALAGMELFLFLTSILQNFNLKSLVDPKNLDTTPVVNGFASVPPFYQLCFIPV
Sequence of Cytochrome P450 2C19 (P33261 whole entry): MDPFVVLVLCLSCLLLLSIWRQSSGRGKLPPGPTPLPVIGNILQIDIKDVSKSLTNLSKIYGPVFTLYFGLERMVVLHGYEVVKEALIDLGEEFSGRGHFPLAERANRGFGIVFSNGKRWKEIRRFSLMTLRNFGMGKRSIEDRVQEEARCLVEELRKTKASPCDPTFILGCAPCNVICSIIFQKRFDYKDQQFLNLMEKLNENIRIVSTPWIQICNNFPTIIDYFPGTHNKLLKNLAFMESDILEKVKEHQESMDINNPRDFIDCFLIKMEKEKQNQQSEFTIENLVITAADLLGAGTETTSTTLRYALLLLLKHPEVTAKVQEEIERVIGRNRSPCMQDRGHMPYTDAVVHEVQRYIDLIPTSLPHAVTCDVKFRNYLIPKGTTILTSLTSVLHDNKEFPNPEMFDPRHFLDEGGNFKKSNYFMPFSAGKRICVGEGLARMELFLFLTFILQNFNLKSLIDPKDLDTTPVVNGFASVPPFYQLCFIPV

C[C@@H]1CN(Cc2ccc(/C=C/c3n[nH]c4cc([C@@H]5C[C@@]56C(=O)Nc5ccccc56)ccc34)cc2)C[C@H](C)O1
GI50 [1]: 10 nM
GI50 [2]: 17 nM
GI50 [3]: 8 nM
GI50 [4]: 6500 nM
GI50 at 120 h [5]: 8400 nM
inhibition (INH) [6]: Not Active
inhibition (INH) [7]: Not Active
Cmax [8]: 3700 ng/mL
AUC [9]: 10000 ng·h/mL
half-life [10]: 3.9 h
AUC(0-inf) [11]: 1230 ng·h/mL
AUC(0-inf) [12]: 2810 ng·h/mL
bioavailability [13]: 46%
half-life [14]: 4.5 h
AUC(0-inf) [15]: 2050 ng·h/mL
AUC(0-inf) [16]: 4990 ng·h/mL
bioavailability [17]: 49%
GI50 [18]: 7200 nM
GI50 [19]: 91 nM
GI50 [20]: 90 nM
GI50 [21]: 9 nM
GI50 [22]: 15 nM
GI50 [23]: 350 nM
GI50 [24]: 57 nM
GI50 [25]: 8 nM
Activity [26]: Non-toxic
Activity [27]: > 20%
inhibition in vivo at 3 mg/kg [28]: 45%
inhibition in vivo at 9.4 mg/kg [29]: 90%
inhibition in vivo at 3 mg/kg [30]: 57%
inhibition in vivo at 9.4 mg/kg [31]: 80%
inhibition in vivo at 3 mg/kg [32]: 44%
inhibition in vivo at 9.4 mg/kg [33]: 79%
MTD at 21 days [34]: 36 mg/kg
TGI [35]: 78%

COc1ccc2c(c1)[C@]1(C[C@H]1c1ccc3c(/C=C/c4ccc(CN5C[C@@H](C)O[C@@H](C)C5)cc4)n[nH]c3c1)C(=O)N2 [OCIFISERTIB]
GI50 [1]: 6 nM
GI50 [2]: 8 nM
GI50 [3]: 5 nM
GI50 [4]: 8600 nM
GI50 at 120 h [5]: 9000 nM
inhibition (INH) [6]: Not Active
inhibition (INH) [7]: Not Active
IC50 [36]: 940 nM
IC50 [37]: 1400 nM
half-life [38]: 0.4 h
half-life [39]: 0.883 h
half-life [40]: 0.717 h
half-life [41]: > 1 h
Cmax [8]: 2200 ng/mL
AUC [9]: 9800 ng·h/mL
clearance [42]: 31.7 mL/min/kg
half-life [10]: 2 h
AUC(0-inf) [11]: 534 ng·h/mL
AUC(0-inf) [12]: 767 ng·h/mL
bioavailability [13]: 21%
clearance [43]: 16 mL/min/kg
half-life [14]: 2.1 h
AUC(0-inf) [15]: 1050 ng·h/mL
AUC(0-inf) [16]: 3460 ng·h/mL
bioavailability [17]: 66%
GI50 [18]: 5300 nM
GI50 [19]: 260 nM
GI50 [20]: 58 nM
GI50 [21]: 5 nM
GI50 [22]: 18 nM
GI50 [23]: 380 nM
GI50 [24]: 17 nM
GI50 [25]: 4 nM
IC50 [44]: 22 nM
EC50 [45]: 117 nM
Activity [26]: Non-toxic
Activity [27]: > 20%
inhibition in vivo at 3 mg/kg [28]: 57%
inhibition in vivo at 9.4 mg/kg [29]: 77%
inhibition in vivo at 3 mg/kg [30]: 7%
inhibition in vivo at 9.4 mg/kg [31]: 86%
inhibition in vivo at 3 mg/kg [32]: 32%
inhibition in vivo at 9.4 mg/kg [33]: 70%
MTD at 21 days [34]: 39 mg/kg
TGI [35]: 98%
TGI [46]: 93%
